These are literature values, as cited in US20100075916A1, “SUBSTITUTED QUINAZOLINE INHIBITORS OF GROWTH FACTOR RECEPTOR TYROSINE KINASES” (AUSPEX PHARMACEUTICALS, INC., priority 2008, published 2010).

Structures are written as SMILES.

For data set [1] the following is noted: vandetanib administration.
For data set [2] the following is noted: humans.

In the case of `COc1cc2c(Nc3ccc(Br)cc3F)ncnc2cc1OCC1CCN(C)CC1` [Vandetanib, N-(4-bromo-2-fluoro-phenyl)-6-methoxy-7-[(1-methyl-4-piperidyl)methoxy]quinazolin-4-amine], in data set [1], the common side effects entry is “rash, diarrhea, QTc prolongation, hypertension, and neutropenia”. Further, in data set [2], the elimination halflife entry is on record as “approximately 120 hours” and the volume of distribution entry was “large volume of distribution”. Moreover, the “lag time before the drug is detectable in plasma” value in data set [2] (after oral administration) is 0.801 h. Besides, the “Ka (absorption)” value in data set [2] (oral administration) was 0.476 h⁻¹.
